{"source": "patent US9815820B2", "about": "“Rho kinase inhibitors” (priority 2012, dated 2017)", "key": {"[1]": {"test_system": "PBMCs", "test": "ex vivo anti-CD3/CD28 stimulation of cytokine production in PBMCs isolated from treated patients", "set-up": "species or system human", "settings": "120 mg/day on days 1 and 8-14"}, "[2]": {"test_system": "CD4+ human T cells", "test": "proliferation of T cells in response to TCR stimulation in vitro", "assay_type": "cell-based", "settings": "listed as KD025"}, "[3]": {"test_system": "TGF-β-induced STAT3, MLC and SMAD2/3 phosphorylation", "test": "TGF-β-induced phosphorylation of STAT3, MLC and SMAD2/3 in Tregs"}, "[4]": {"test_system": "CD4+ T cells from RA patients", "test": "cytokine secretion ex vivo in CD3/CD28 stimulated CD4+ T cells from RA patients", "assay_type": "cell-based, human"}, "[5]": {"test_system": "human CD4+ T cells", "test": "Foxp3 expression in CD4+ T cells after Th17 skewing activation", "assay_type": "cell-based", "settings": "5 days of Th17 skewing activation"}, "[6]": {"test_system": "CD4+CD25+ human Tregs", "test": "Treg suppression of IL-17 secretion in CD4+CD25- effector T cells", "assay_type": "cell-based", "settings": "Tregs treated 3 hours; Treg:Teff 1:4 and 1:9"}, "[7]": {"test_system": "CD4+ human T cells", "test": "cytokine secretion in anti-CD3/CD28 stimulated CD4+ T cells in vitro", "assay_type": "cell-based", "settings": "anti-CD3/CD28 stimulation"}, "[8]": {"test_system": "STAT3 phosphorylation", "test": "STAT3 phosphorylation in T cells", "assay_type": "cell-based, human"}, "[9]": {"settings": "CD4+ T cells from RA patients, ex vivo, listed as KD025"}}, "note": "Entries after “also recorded” stand apart in the source; their conditions may differ."}
{"smiles": "CC(C)NC(=O)COc1cccc(-c2nc(Nc3ccc4[nH]ncc4c3)c3ccccc3n2)c1", "note": "[SLx-2119]", "values": [{"measurement": "IFN-γ in PBMCs", "setting": "[1]", "result": "No effect"}, {"measurement": "induction of IL-17 secretion in PBMCs", "setting": "[1]", "result": "significantly inhibited in PBMCs isolated from four of five patients"}, {"measurement": "induction of IL-21 secretion in PBMCs", "setting": "[1]", "result": "significantly inhibited in PBMCs from all five patients"}, {"measurement": "proliferation in response to TCR stimulation", "setting": "[2]", "result": "inhibits; also recorded: down-regulated their ability to proliferate"}, {"measurement": "phosphorylation of SMAD2/3", "setting": "[3]", "result": "remains intact"}, {"measurement": "TGF-β-induced MLC phosphorylation", "setting": "[3]; dose-dependent", "result": "down-regulates"}, {"measurement": "TGF-β-induced STAT3 phosphorylation", "setting": "[3]; dose-dependent", "result": "down-regulates"}, {"measurement": "frequencies of IL-17 and IFN-γ-producing cells", "setting": "[4]; 2 RA patients, intracellular staining", "result": "significantly reduced the frequencies"}, {"measurement": "IFN-γ secretion", "setting": "[4]; [9]", "result": "inhibits; also recorded: significantly down-regulated"}, {"measurement": "IL-17 secretion", "setting": "[4]; [9]", "result": "inhibits; also recorded: significantly down-regulated"}, {"measurement": "IL-21 secretion", "setting": "[4]; [9]", "result": "inhibits; also recorded: significantly down-regulated"}, {"measurement": "percentage of Foxp3+ cells", "setting": "[5]", "result": "significantly increased"}, {"measurement": "ability of Tregs to suppress IL-17 secretion in CD4+CD25- effector T cells", "setting": "[6]", "result": "significantly increased"}, {"measurement": "IFN-γ secretion", "setting": "[7]", "result": "less robust and significant only at high dose (10 μM)"}, {"measurement": "IL-2 secretion", "setting": "[7]", "result": "observed only at the highest concentration (10 μM)"}, {"measurement": "IL-17 secretion", "setting": "[7]; listed as KD025", "result": "inhibits; also recorded: significantly inhibited"}, {"measurement": "IL-21 secretion", "setting": "[7]; listed as KD025", "result": "inhibits; also recorded: significantly inhibited"}, {"measurement": "STAT3 phosphorylation", "setting": "[8]; Th17-skewing conditions 5 days, then treatment 3 hours", "result": "STAT3 phosphorylation was reduced"}, {"measurement": "phosphorylation of STAT3, IRF4 and RORγt", "setting": "[8]; anti-CD3/CD28, TGF-β and IL-1β, 48 hours (FIG. 9C)", "result": "reduced phosphorylation of STAT3, as well as IFR4 and RORγT, was confirmed"}, {"measurement": "phosphorylation of STAT3", "setting": "[8]; pre-treatment, then anti-CD3/CD28 stimulation", "result": "reduced phosphorylation of STAT3"}]}
